Test results published in patent publication US20170320870A1 (Medical Research Council Technology, priority 2009, published 2017).

Molecular target: T1, LRRK2 wild type (recombinant human, catalytic domain amino acids 970-2527, GST-tagged) (Homo sapiens, UniProt Q5S007)
T1 construct: The wild type used was recombinant human, catalytic domain (amino acids 970-2527) GST-tagged, expressed in insect cells; GST; purchased Invitrogen Corporation PV4873; host or cells: insect cells
Assay: LRRK2 wild type protein kinase assay ([γ-33P] ATP, peptide substrate […]), IC50
Type: biochemical
Conditions: LRRK2 (variant not given); read-out: Potency score, LRRK2 IC50
Description: All LRRK2 protein kinases were of human origin and were sourced from Invitrogen Corporation (Carlsbad, Calif. 92008 USA) unless otherwise indicated. The active mutant used was recombinant human, catalytic domain (amino acids 970-2527) containing a G2019S mutation, GST-tagged, expressed in insect cells (Invitrogen Cat#PV4881). The wild type used was recombinant human, catalytic domain (amino acids 970-2527) GST-tagged, expressed in insect cells (Invitrogen Cat#PV4873). The kinase dead mutant used was recombinant human, catalytic domain (amino acids 970-2527) containing a D1994A mutation, GST-tagged, expressed in insect cells (Invitrogen Cat#PM4041AE). No special measures were taken to activate any of the kinases.
All assays were carried out at room temperature (˜21° C.) and were linear with respect to time and enzyme concentration under the conditions used. Assays were performed for 180 min in a 96 well format. LRRK2 was present at a concentration of approximately 5 nM. The enzyme was diluted and assayed in 50 mM Tris-HCl pH7.5, 0.1 mM EGTA, 1 mM DTT and 10 mM MgCl2. The concentration of magnesium chloride in the assay was 10 mM. The [γ-33P] […] The peptide substrate in the assay was […] at 100 μM.
The assays were initiated with Mg/ATP and stopped by the addition of 25 μl/well 50% orthophosphoric acid. Reactions were harvested onto Whatman P81 Unifilter Plates (Fisher Scientific. Loughborough, LE115RG, UK. Cat# FDU-105-020U) using a Tomtec harvester. (Tomtec Hamden, Conn. 06514. USA) Plates were counted using a Perkin Elmer Top Count NX7. (Perkin Elmer, Shelton Conn. 06484-4794 USA)
IC50 values of inhibitors were determined after carrying out assays at 10 different concentrations of each compound in duplicate.

T1 sequence (Q5S007 970-2527): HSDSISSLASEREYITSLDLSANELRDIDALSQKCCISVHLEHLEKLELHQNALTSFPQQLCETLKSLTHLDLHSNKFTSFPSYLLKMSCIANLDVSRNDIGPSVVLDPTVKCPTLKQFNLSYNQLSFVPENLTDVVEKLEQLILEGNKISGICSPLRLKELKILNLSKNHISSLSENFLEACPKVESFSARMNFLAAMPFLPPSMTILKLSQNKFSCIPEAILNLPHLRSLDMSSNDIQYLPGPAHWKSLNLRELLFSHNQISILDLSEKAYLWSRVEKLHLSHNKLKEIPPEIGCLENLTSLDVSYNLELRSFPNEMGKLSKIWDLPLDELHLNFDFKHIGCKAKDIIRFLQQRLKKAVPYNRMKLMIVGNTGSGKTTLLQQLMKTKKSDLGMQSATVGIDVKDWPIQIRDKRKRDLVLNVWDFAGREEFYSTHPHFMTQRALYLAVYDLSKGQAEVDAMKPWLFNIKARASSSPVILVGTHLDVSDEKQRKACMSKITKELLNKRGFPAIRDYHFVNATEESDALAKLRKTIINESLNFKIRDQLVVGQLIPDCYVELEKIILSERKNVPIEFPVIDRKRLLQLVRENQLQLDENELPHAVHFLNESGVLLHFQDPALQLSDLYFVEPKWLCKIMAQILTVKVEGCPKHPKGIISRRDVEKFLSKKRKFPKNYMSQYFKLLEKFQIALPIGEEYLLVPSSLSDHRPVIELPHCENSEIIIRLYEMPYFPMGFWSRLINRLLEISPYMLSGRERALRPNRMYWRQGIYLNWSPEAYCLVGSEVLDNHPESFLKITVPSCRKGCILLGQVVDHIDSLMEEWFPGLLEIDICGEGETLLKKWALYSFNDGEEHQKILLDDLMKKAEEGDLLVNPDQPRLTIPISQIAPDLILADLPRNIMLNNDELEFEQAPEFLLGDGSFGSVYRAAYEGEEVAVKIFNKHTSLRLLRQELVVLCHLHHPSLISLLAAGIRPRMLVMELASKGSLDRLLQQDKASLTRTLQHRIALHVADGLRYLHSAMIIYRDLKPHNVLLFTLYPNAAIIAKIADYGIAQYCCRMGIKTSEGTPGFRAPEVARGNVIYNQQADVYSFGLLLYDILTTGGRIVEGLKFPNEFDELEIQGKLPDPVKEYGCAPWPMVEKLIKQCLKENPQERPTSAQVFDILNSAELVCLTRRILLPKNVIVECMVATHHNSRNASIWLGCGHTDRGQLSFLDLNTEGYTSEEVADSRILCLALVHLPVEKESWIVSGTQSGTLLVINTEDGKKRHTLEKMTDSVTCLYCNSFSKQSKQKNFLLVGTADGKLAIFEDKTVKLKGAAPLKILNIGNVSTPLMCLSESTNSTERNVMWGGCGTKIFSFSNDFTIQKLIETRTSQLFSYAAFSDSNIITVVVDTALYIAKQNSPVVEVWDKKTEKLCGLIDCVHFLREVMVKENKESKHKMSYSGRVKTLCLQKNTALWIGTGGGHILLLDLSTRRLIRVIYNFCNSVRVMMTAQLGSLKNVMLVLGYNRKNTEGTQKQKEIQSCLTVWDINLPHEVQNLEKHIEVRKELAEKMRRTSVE

IC50 [nM]	Compound
100 to 1000	Cc1n[nH]c2ccnc(O[C@H]3C[C@@H]4CC[C@H]3C4)c12 (racemic) [Example 291]
100 to 1000	Cc1n[nH]c2ccnc(O[C@@H]3CCC[C@@H]3C)c12 (racemic) [Example 293, Cis-3-Methyl-4-(2-methyl-cyclopentyl-oxy)-1H-pyrazolo [4,3-c]pyridine]
< 100	Cc1n[nH]c2ccnc(O[C@@H]3C[C@@H]4CC[C@H]3C4)c12 (racemic) [Example 296]
< 100	Cc1n[nH]c2ccnc(O[C@@H]3CCC[C@H]3C)c12 (racemic) [Example 298, Trans-3-Methyl-4-(2-methyl-cyclopentyloxy)-1H-pyrazolo[4,3-c]pyridine]
100 to 1000	CCCNc1nccc2[nH]nc(C)c12 [Example 16, (3-Methyl-1H-pyrazolo[4,3-c]pyridin-4-yl)-propyl-amine]
1000 to 10000	Cc1n[nH]c2ccnc(NCC3CCOCC3)c12 [Example 17]
1000 to 10000	Cc1n[nH]c2ccnc(NCC3CC3)c12 [Example 18, Cyclopropylmethyl-(3-methyl-1H-pyrazolo[4,3-c]pyridin-4-yl)-amine]
1000 to 10000	Cc1n[nH]c2ccnc(N[C@H](C)c3ccccc3)c12 [Example 19, (3-Methyl-1H-pyrazolo[4,3-c]pyridin-4-yl)-((R)-1-phenyl-ethyl)-amine]
100 to 1000	Cc1n[nH]c2ccnc(NC3CCC(F)(F)CC3)c12 [Example 20, (4,4-Difluoro-cyclohexyl)-(3-methyl-1H-pyrazolo[4,3-c]pyridin-4-yl)-amine]
100 to 1000	Cc1n[nH]c2ccnc(NC3CCCC3)c12 [Example 21, Cyclopentyl-(3-methyl-1H-pyrazolo[4,3-c]pyridin-4-yl)-amine]
100 to 1000	Cc1n[nH]c2ccnc(NC3CCC3)c12 [Example 22, Cyclobutyl-(3-methyl-1H-pyrazolo[4,3-c]pyridin-4-yl)-amine]
100 to 1000	CCC(C)Nc1nccc2[nH]nc(C)c12 (stereo not drawn) [Example 23, sec-Butyl-(3-methyl-1H-pyrazolo[4,3-c]pyridin-4-yl)-amine]
100 to 1000	Cc1n[nH]c2ccnc(NCC(C)C)c12 [Example 24, Isobutyl-(3-methyl-1H-pyrazolo[4,3-c]pyridin-4-yl)-amine]
1000 to 10000	Cc1n[nH]c2ccnc(NCCC3CCCN3C)c12 (stereo not drawn) [Example 25, (3-Methyl-1H-pyrazolo[4,3-c]pyridin-4-yl)-[2-(1-methyl-pyrrolidin-2-yl)-ethyl]-amine]
100 to 1000	Cc1n[nH]c2ccnc(N[C@H]3CC[C@H](O)CC3)c12 [Example 26, Trans-4-(3-Methyl-1H-pyrazolo[4,3-c]pyridin-4-ylamino)-cyclohexanol]
100 to 1000	Cc1n[nH]c2ccnc(NC(C)C(C)C)c12 (stereo not drawn) [Example 27, (1,2-Dimethyl-propyl)-(3-methyl-1H-pyrazolo[4,3-c]pyridin-4-yl)-amine]
1000 to 10000	Cc1n[nH]c2ccnc(N[C@H](CO)C(C)C)c12 [Example 28, (S)-3-Methyl-2-(3-methyl-1H-pyrazolo[4,3-c]pyridin-4-ylamino)-butan-1-ol]
1000 to 10000	Cc1n[nH]c2ccnc(N[C@@H](C)c3ccccc3)c12 [Example 29, (3-Methyl-1H-pyrazolo[4,3-c]pyridin-4-yl)-((S)-1-phenyl-ethyl)-amine]
1000 to 10000	Cc1n[nH]c2ccnc(N[C@@H](CO)C(C)C)c12 [Example 30, (R)-3-Methyl-2-(3-methyl-1H-pyrazolo[4,3-c]pyridin-4-ylamino)-butan-1-ol]
1000 to 10000	Cc1n[nH]c2ccnc(NC3CCCN(C)C3)c12 (stereo not drawn) [Example 31, (1-Methyl-piperidin-3-yl)-(3-methyl-1H-pyrazolo[4,3-c]pyridin-4-yl)-amine]
1000 to 10000	Cc1n[nH]c2ccnc(NCC(C)(C)C)c12 [Example 32, (2,2-Dimethyl-propyl)-(3-methyl-1H-pyrazolo[4,3-c]pyridin-4-yl)-amine]
100 to 1000	Cc1n[nH]c2ccnc(NC3CCCCCC3)c12 [Example 33, Cycloheptyl-(3-methyl-1H-pyrazolo[4,3-c]pyridin-4-yl)-amine]
100 to 1000	Cc1n[nH]c2ccnc(N[C@H]3CC[C@H](C)CC3)c12 [Example 34, Trans-(4-Methyl-cyclohexyl)-(3-methyl-1H-pyrazolo[4,3-c]pyridin-4-yl)-amine]

The remaining lines, values behind:

Compound	IC50 [nM]
1-(3-Benzyl-piperidin-1-yl)- 3-(4-cyclohexylamino-1H- pyrazolo[4,3-c]pyridin-3-yl)- propan-1-one [Example 200]	100 to 1000
Cc1n[nH]c2ccnc(NCc3ccc(Cl)cc3)c12 [Example 1, (4-Chloro-benzyl)-(3-methyl-1H-pyrazolo[4,3-c]pyridin-4-yl)-amine]	1000 to 10000
Cc1n[nH]c2ccnc(NCCc3ccccn3)c12 [Example 2, (3-Methyl-1H-pyrazolo[4,3-c]pyridin-4-yl)-(2-pyridin-2-yl-ethyl)-amine]	1000 to 10000
Cc1n[nH]c2ccnc(NC3CCCCC3)c12 [Example 3, Cyclohexyl-(3-methyl-1H-pyrazolo[4,3-c]pyridin-4-yl)-amine]	100 to 1000
Cc1n[nH]c2ccnc(NC3CCOCC3)c12 [Example 4, (3-Methyl-1H-pyrazolo[4,3-c]pyridin-4-yl)-(tetrahydro-pyran-4-yl)-amine]	100 to 1000
Cc1n[nH]c2ccnc(N3CCN(C)CC3)c12 [Example 5, 3-Methyl-4-(4-methyl-piperazin-1-yl)-1H-pyrazolo[4,3-c]pyridine]	1000 to 10000
COCCNc1nccc2[nH]nc(C)c12 [Example 6, (2-Methoxy-ethyl)-(3-methyl-1H-pyrazolo[4,3-c]pyridin-4-yl)-amine]	1000 to 10000
Cc1n[nH]c2ccnc(N3CCN(c4cccc(Cl)c4)CC3)c12 [Example 7, 4-[4-(3-Chloro-phenyl)-piperazin-1-yl]-3-methyl-1H-pyrazolo[4,3-c]pyridine]	1000 to 10000
Cc1n[nH]c2ccnc(N3CCN(Cc4cc(F)ccc4F)CC3)c12 [Example 8, 4-[4-(2,5-Difluoro-benzyl)-piperazin-1-yl]-3-methyl-1H-pyrazolo[4,3-c]pyridine]	1000 to 10000
Cc1n[nH]c2ccnc(N3CCN(c4ccccn4)CC3)c12 [Example 9, 3-Methyl-4-(4-pyridin-2-yl-piperazin-1-yl)-1H-pyrazolo[4,3-c]pyridine]	1000 to 10000
Cc1n[nH]c2ccnc(N3CCOCC3)c12 [Example 10, 3-Methyl-4-morpholin-4-yl-1H-pyrazolo[4,3-c]pyridine]	1000 to 10000
Cc1n[nH]c2ccnc(NC3CC3)c12 [Example 11, Cyclopropyl-(3-methyl-1H-pyrazolo[4,3-c]pyridin-4-yl)-amine]	1000 to 10000
Cc1n[nH]c2ccnc(N3CCc4ccccc4C3)c12 [Example 12, 2-(3-Methyl-1H-pyrazolo[4,3-c]pyridin-4-yl)-1,2,3,4-tetrahydro-isoquinoline]	1000 to 10000
Cc1n[nH]c2ccnc(NC3CCN(C)CC3)c12 [Example 13, (1-Methyl-piperidin-4-yl)-(3-methyl-1H-pyrazolo[4,3-c]pyridin-4-yl)-amine]	100 to 1000
CCN(CC)CCNc1nccc2[nH]nc(C)c12 [Example 14, N,N-diethyl-N′-(3-methyl-1H-pyrazolo[4,3-c]pyridin-4-yl)-ethane-1,2-diamine]	1000 to 10000
Cc1n[nH]c2ccnc(NCCCn3ccnc3)c12 [Example 15, (3-Imidazol-1-yl-propyl)-(3-methyl-1H-pyrazolo[4,3-c]pyridin-4-yl)-amine]	100 to 1000
